# Assay results from US11840551B2, “Compositions and methods of modulating the immune response by activating alpha protein kinase 1” (Shanghai Yao Yuan Biotechnology Co., Ltd., priority 2017, dated 2023).
# Assays:
# ALPK1 [1] = target: T1, ALPK1 (Homo sapiens, UniProt Q96QP1); assay: Thermal shift assay (SYPRO Orange) for binding to ALPK1; settings: ALPK1 7 uM; 1, 5, 25, 125 uM compound; H1b-ADP shift at 5, 25 and 125 uM
# Text: The thermal shift assay is widely used to determine the binding of a molecule to a protein of interest. The assay is based on the increase in thermal energy required for denaturation of a protein where another molecule is bound to the protein. SYPRO Orange is a fluorescent compound used in the detection of thermal shift. SYPRO Orange binds to hydrophobic surfaces of the protein, and water strongly quenches its fluorescence. When the protein unfolds, the exposed hydrophobic surfaces bind the dye, resulting in an increase in fluorescence. When another molecule is bound to the protein, an increase in the temperature required for unfolding of the protein is observed.
# This assay system was used to determine whether or not chemically synthesized HBP, HMP-1bP, and H1b-ADP directly bind to ALPK1. […] Only H1b-ADP induced a shift of more than 1 degree, at each of the three highest concentrations tested, 5 uM, 25 uM, and 125 uM.
# ALPK1 [2] = target: T1, ALPK1; assay: IL-8 and TNFα mRNA expression in HEK293 cells with control or ALPK1-directed siRNA (qPCR); assay type: cell-based; set-up: silence ALPK1 expression in HEK293 cells; endogenous in cells; host or cells: HEK293; settings: control vs ALPK1-directed siRNA, 4 hours, HBP 500, 100, 20 uM, HMP-1bP 500, 100 uM, H1b-ADP 100, 20, 4, 0.8 nM
# Method: To test whether HBP, HMP-1bP, and H1b-ADP were able to induce cytokine expression in an ALPK1 dependent manner, we used an ALPK1-directed small interfering RNA (siRNA) to silence ALPK1 expression in HEK293 cells. Cells were plated (1×10^4 cells/well) into 96-well plates and transfected with either control siRNA or ALPK1-directed siRNA according to the manufacturer's protocols (Lipofectamine™ RNAiMax™, Invitrogen 13778075). Following 2 days of culture, either (1) HBP (500 uM, 100 uM, 20 uM, FIG. 2A-2B) (2) HMP-1bP (500 uM, 100 uM, FIG. 3A-3B), (3) H1b-ADP (100 nM, 20 nM, 4 nM, 0.8 nM, FIG. 4A-4B) was added to culture medium and cells were harvested 4 hours later.
# ALPK1 [3] = target: T1, ALPK1; assay: Cell-free kinase assay of ALPK1-dependent phosphorylation of IκB; assay type: biochemical; settings: 2 nM ALPK1, with or without ATP, 1 hour
# Method: We next tested whether H1b-ADP-induced autophosphorylation of ALPK1 was effective to activate NFκB using phosphorylation of IκB as a marker for this activity. Phosphorylation assays were performed according to standard protocols and phosphorylated protein was detected by gel electrophoresis and Western blotting using an antibody that detects phosphorylated IκB. Briefly, assays were performed in a 20 μl volume at 25° C. in assay buffer (25 mM HEPES pH 7.5, 50 mM KCl, 0.1 mM EDTA, 0.1 mM EGTA, 2 mM DTT, 1.5 mM CaCl2, 10 mM MgCl2) containing 2 nM ALPK1 and H1b-ADP […] with or without ATP, or either ALPK1 alone or H1b-ADP alone, both in the presence of ATP. After 1 hour of incubation, the reaction was loaded to denaturing gel for protein electrophoresis and Western was performed to detect phosphorylation of 1 kB using p-IkB antibody (Abcam).
# CT26 cells = assay: mRNA expression in CT26 tumor tissue after intratumoral injection (qPCR); assay type: in vivo, BALB/c mice; settings: H1b-ADP 2.5 μg, 250 ng, 50 ng intratumoral, 4 hours post-injection
# Method: We next asked whether H1b-ADP caused an increase in pro-inflammatory cytokines within the tumor. Tumor cells (2×10^5 per 100 μL CT26 cells) were inoculated subcutaneously into the right flank of BALB/c mice. 2.5 μg (n=2), 250 ng (n=2), 50 ng (n=2) of H1b-ADP or control (n=2) was intratumorally injected (20 uL) at day 7 post inoculation. 4 hours post-injection, tumor issues were dissected and harvested. Total RNA was isolated (TRIzol™, ThermoFisher) and cDNA was synthesized (PrimeScript™ RT reagent Kit, Takara) and amplified (AceQ™ qPCR SYBR™ Green Master Mix, Vazyme Biotech using a QuantStudio™ 7 Flex Real-Time PCR Systems (ThermoFisher) according to manufacturers' protocols.
# [4] = system: phosphatase activity in the serum; assay: Incubation of H1b-ADP with FBS, product analysed by LC-MS; assay type: in vitro ADME, bovine; settings: increasing incubation time, LC-MS; product determined to be AMP
# Text: FBS contains 110-352 μU/ml alkaline phosphatase.
# [5] = system: mouse bone marrow-derived macrophages; assay: Cxcl1 mRNA expression in bone marrow-derived macrophages (qPCR); assay type: cell-based; settings: 0.4 nM or 2 nM H1b-ADP, 2.5 hours
# Method: In these experiments, mouse bone marrow-derived macrophages were treated with 0.4 nM or 2 nM H1b-ADP for 2.5 hours and harvested for mRNA expression analysis of Cxcl1 by qPCR. […] Accordingly, very low doses of H1b-ADP, or an agonist thereof, may be used to enhance or potentiate an immune response in a local tissue.
# ALPK1 [6] = target: T1, ALPK1; assay: IL8 secretion in HEK293 cells (IL8 ELISA) as indicator of ALPK1 activation; settings: cells cultured with fetal bovine, human or mouse serum
# Method: Phosphatase such as the alkaline phosphatase may be responsible for H1b-ADP hydrolysis. We pre-mixed H1b-ADP with phosphatase inhibitor sodium orthovanadate (Na3VO4) before incubation with FBS. […] We hypothesized that the accumulation of hydrolysis product AMP can inhibit phosphatase activity.
# A number of H1b-ADP derivative compounds were made as described herein and tested for biological activity as agonists of ALPK1 in vitro. In these experiments, serial dilutions of the compounds were added to the tissue culture media of HEK293 cells with (FIG. 27B, FIG. 28B, FIG. 29B) or without (FIG. 26, FIG. 27A, FIG. 28A, FIG. 29A) 10% FBS, as indicated in the figures. After 4 hours, the cell supernatant was collected and analyzed for IL8 concentration using IL8 ELISA (BD) as an indicator of ALPK1 activation.
# T1 sequence (Q96QP1 whole entry): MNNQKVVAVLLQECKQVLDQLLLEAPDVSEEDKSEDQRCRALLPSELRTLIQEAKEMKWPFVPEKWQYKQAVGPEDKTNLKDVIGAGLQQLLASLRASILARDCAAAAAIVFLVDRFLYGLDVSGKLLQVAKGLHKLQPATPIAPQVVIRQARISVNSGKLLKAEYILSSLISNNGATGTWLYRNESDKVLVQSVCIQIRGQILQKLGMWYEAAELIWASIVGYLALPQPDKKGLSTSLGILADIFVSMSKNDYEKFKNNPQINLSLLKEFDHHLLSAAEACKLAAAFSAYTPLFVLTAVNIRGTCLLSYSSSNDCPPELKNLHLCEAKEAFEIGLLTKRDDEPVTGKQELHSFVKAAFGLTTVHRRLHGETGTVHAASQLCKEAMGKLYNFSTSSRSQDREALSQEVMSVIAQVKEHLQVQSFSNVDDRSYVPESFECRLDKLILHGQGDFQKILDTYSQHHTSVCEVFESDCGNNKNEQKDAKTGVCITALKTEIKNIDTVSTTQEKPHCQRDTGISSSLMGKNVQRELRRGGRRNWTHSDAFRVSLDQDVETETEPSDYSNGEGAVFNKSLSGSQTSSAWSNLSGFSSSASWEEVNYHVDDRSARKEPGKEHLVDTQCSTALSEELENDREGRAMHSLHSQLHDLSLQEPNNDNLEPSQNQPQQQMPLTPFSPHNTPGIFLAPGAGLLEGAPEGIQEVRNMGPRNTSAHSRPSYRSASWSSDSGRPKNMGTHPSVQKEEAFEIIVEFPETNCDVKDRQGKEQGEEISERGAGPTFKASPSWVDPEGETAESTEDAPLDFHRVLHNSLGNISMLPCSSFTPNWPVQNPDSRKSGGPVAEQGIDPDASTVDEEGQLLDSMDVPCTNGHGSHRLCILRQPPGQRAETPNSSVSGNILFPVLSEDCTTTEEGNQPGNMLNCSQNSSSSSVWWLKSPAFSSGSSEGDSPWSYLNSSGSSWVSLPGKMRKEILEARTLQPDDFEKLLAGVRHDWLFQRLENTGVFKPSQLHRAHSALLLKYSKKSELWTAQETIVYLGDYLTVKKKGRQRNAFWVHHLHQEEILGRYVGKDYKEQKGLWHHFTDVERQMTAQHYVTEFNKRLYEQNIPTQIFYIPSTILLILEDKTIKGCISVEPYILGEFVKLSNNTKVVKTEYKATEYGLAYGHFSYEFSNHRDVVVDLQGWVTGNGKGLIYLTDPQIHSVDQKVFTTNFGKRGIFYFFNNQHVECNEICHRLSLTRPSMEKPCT
SMILES,thermal shift of ALPK1 (ALPK1 [1]),IL-8 mRNA expression (ALPK1 [2]),TNFα mRNA expression (ALPK1 [2]),IκB phosphorylation (ALPK1 [3]),PD-1 and PD-L1 expression in tumor (CT26 cells),"mRNA expression of CD8, CD4, Foxp3 and T-bet in tumor (CT26 cells)","mRNA expression of inflammatory cytokine IL-1b, Tnfa, Ifn gamma, and IL-6, and chemokine Cxcl1 in tumor (CT26 cells)",H1b-ADP amount on incubation with FBS [4],"Cxcl1 mRNA expression, fold change over non-treated control [5]",H1b-ADP's activity to activate ALPK1 in HEK293 cells (IL8 secretion) (ALPK1 [6])
"O=P(O)(O)O[C@@H]1O[C@H]([C@H](O)CO)[C@@H](O)[C@H](O)[C@@H]1O [HMP-1bP, D-glycero-β-D-manno-heptose-1-phosphate]",Neither HBP nor HMP-1bP were able to induce a thermal shift,increased in an ALPK1-dependent manner,increased in an ALPK1-dependent manner,,,,,,,
"Nc1ncnc2c1ncn2[C@@H]1O[C@H](COP(=O)(O)OP(=O)(O)O[C@@H]2O[C@H]([C@H](O)CO)[C@@H](O)[C@H](O)[C@@H]2O)[C@@H](O)[C@H]1O [Compound H1b-ADP, D-glycero-D-manno-heptose-1β-ADP]",,increased in an ALPK1-dependent manner,increased in an ALPK1-dependent manner,IkB phosphorylation was detected only in the presence of both ALPK1 and H1b-ADP in the presence of ATP,increased in H1b-ADP injected tumor,increased upon H1b-ADP injection,increased upon H1b-ADP injection,the H1b-ADP amount declined,showed a dose-dependent response,greatly declined
